# From patent publication US8785600B2, “Anti-GCC antibody molecules and related compositions and methods” (Millennium Pharmaceuticals, Inc., priority 2009, dated 2014)
# Key:
# [1] = tested on: GCC-expressing cells (T84 cells compared to MCF-7 cells; vector control cells); experiment: Internalization assay (immunofluorescence microscopy); type: cell-based, human; conditions: 10 μg/ml, 37° C.
# Description: Internalization of anti-GCC antibody molecules was tested in both GCC-expressing cells and vector control cells, using immunofluorescence microscopy. Cells were grown on coverslips and placed on ice for 10 minutes prior to incubation with 10 μg/ml antibody in cold culture medium for 20 minutes on ice. For internalization, antibody-containing medium was replaced with fresh culture medium and the cells were shifted to 37° C. for 2-3 hours or maintained on ice. After rinsing in PBS and a brief fixation in 4% paraformaldehyde at room temperature, cells were permeabilized for 15 min in 0/5% TRITON X-100. The localization of the test antibody was determined using a fluorescently labeled anti-IgG antibody by laser scanning confocal microscopy. Antibody molecules localized to the cell surface of GCC-expressing cells when on ice.
# Most of the antibodies generated herein were tested in a number of the assays described above. (T84=human colon tumor cells, MCF7=human breast tumor cells, WB=western blot, IP=immunoprecipitation, IHC=immunohistochemistry; internalization used T84 cells compared to MCF-7 cells)
# mouse GCC = molecular target: T1, mouse GCC (Mus musculus, UniProt Q3UWA6); experiment: Cross-reactivity with GCC orthologs (ELISA); type: binding
# T1 sequence (Q3UWA6 20-1072): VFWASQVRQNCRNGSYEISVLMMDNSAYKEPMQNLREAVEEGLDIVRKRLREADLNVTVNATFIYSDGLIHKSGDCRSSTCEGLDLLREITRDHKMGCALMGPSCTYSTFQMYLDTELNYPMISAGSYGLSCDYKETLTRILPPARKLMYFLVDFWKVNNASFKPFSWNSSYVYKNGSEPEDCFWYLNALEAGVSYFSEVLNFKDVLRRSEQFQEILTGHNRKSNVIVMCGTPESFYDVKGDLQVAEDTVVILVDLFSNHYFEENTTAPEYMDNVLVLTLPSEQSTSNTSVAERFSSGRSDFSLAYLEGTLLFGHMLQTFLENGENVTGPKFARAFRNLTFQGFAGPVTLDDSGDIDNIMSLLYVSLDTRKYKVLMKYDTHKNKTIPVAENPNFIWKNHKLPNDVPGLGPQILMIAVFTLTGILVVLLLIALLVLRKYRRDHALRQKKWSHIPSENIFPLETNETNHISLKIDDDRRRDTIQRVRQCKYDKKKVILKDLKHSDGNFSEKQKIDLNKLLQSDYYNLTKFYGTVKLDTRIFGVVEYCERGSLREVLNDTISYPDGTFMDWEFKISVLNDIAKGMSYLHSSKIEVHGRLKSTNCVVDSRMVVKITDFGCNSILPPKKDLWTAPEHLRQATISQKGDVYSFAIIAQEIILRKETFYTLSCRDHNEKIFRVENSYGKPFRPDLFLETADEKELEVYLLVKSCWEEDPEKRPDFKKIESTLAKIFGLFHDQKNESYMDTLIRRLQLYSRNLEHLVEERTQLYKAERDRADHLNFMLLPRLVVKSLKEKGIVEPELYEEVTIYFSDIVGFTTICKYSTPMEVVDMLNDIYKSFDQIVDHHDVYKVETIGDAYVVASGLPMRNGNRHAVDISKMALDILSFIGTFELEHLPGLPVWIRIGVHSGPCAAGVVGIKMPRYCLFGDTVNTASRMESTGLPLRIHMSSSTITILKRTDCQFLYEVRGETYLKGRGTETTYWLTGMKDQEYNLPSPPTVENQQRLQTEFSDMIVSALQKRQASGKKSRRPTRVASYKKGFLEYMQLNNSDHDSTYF
# Excerpt: FIG. 4 depicts ELISA binding assays to test antibody cross-reactivity of GCC orthologs.
substance,measurement,setting,value
"5F9: Human anti-GCC mAb (IgG2, kappa) of hybridoma 5F9, ATCC PTA-8132; VH SEQ ID NO:18, VL SEQ ID NO:20; also engineered as IgG1",Internalization (localization of antibody by confocal microscopy),[1],"punctuate staining within the cell membrane, indicative of internalization"
same,Binding to mouse GCC,mouse GCC,does not bind
